Experimental data from publication PMC12260505, “First-in-Human Phase I/IIa Study of the First-in-Class CDK2/4/6 Inhibitor PF-06873600 Alone or with Endocrine Therapy in Patients with Breast Cancer” (Clinical Cancer Research, 2025).

Test: Adverse events graded by NCI CTCAE version 4.03, phase I/IIa study
Format: in vivo
Description: Part 1 included adult patients with HR^+/HER2^− advanced breast cancer or mBC (third- or fourth-line setting), locally recurrent/advanced or metastatic TNBC, or advanced platinum-resistant epithelial ovarian cancer/fallopian tube cancer/primary peritoneal cancer who received oral PF-06873600 at doses of 1 to 50 mg twice daily or oral PF-06873600 plus ET (letrozole or fulvestrant). Primary endpoints for part 1 dose escalation determined safety and tolerability to define dose-limiting toxicities (DLT), estimate the maximum tolerated dose, and select the recommended dose for expansion (RDE). Safety endpoints included adverse events (AE) characterized by type, frequency, severity [as graded by NCI Common Terminology Criteria for Adverse Events (CTCAE) version 4.03], timing, seriousness, and relationship to study therapy. Laboratory abnormalities were characterized by type, frequency, severity (as graded by NCI CTCAE version 4.03), timing, vital sign abnormalities, and heart rate–corrected QT interval (e.g., QTcF). Secondary endpoints included PK, preliminary antitumor activity as assessed using RECIST version 1.1, time-to-event endpoints including objective response rate (ORR), duration of response (DoR), progression-free survival (PFS), time to progression (TTP), and modulation of tumor CDK biomarkers [phosphorylated Rb (pRb), Ki67]. Exploratory endpoints included molecular profiling of tumor and ctDNA and the relationship to clinical outcome.
AEs were graded by NCI CTCAE version 4.03.

[1] = Part 2C 25 mg BID IR + Fulvestrant, N = 28

C[C@@]1(O)CCC[C@H]1n1c(=O)c(C(F)F)cc2cnc(NC3CCN(S(C)(=O)=O)CC3)nc21 [PF-06873600]
Treatment-related TEAE, Headache, Grade 3/4 [1]: 0 n (%) | Treatment-related TEAE, Headache, Grade 5 [1]: 0 n (%) | Treatment-related TEAE, Headache, Total [1]: 9 (32.1) n (%) | Treatment-related TEAE, Leukopenia, Grade 1 [1]: 3 (10.7) n (%) | Treatment-related TEAE, Leukopenia, Grade 2 [1]: 3 (10.7) n (%) | Treatment-related TEAE, Leukopenia, Grade 3/4 [1]: 0 n (%) | Treatment-related TEAE, Leukopenia, Grade 5 [1]: 0 n (%) | Treatment-related TEAE, Leukopenia, Total [1]: 6 (21.4) n (%) | Treatment-related TEAE, Nausea, Grade 1 [1]: 12 (42.9 ) n (%) | Treatment-related TEAE, Nausea, Grade 2 [1]: 7 (25.0) n (%) | Treatment-related TEAE, Nausea, Grade 3/4 [1]: 0 n (%) | Treatment-related TEAE, Nausea, Grade 5 [1]: 0 n (%) | Treatment-related TEAE, Nausea, Total [1]: 19 (67.9 ) n (%) | Treatment-related TEAE, Neutropenia, Grade 1 [1]: 1 (3.6) n (%) | Treatment-related TEAE, Neutropenia, Grade 2 [1]: 2 (7.1) n (%) | Treatment-related TEAE, Neutropenia, Grade 3/4 [1]: 6 (21.4) n (%) | Treatment-related TEAE, Neutropenia, Grade 5 [1]: 0 n (%) | Treatment-related TEAE, Neutropenia, Total [1]: 9 (32.1) n (%) | Treatment-related TEAE, Thrombocytopenia, Grade 1 [1]: 1 (3.6) n (%) | Treatment-related TEAE, Thrombocytopenia, Grade 2 [1]: 0 n (%) | Treatment-related TEAE, Thrombocytopenia, Grade 3/4 [1]: 1 (3.6) n (%) | Treatment-related TEAE, Thrombocytopenia, Grade 5 [1]: 0 n (%) | Treatment-related TEAE, Thrombocytopenia, Total [1]: 2 (7.1) n (%) | Treatment-related TEAE, Vomiting, Grade 1 [1]: 8 (28.6) n (%) | Treatment-related TEAE, Vomiting, Grade 2 [1]: 4 (14.3) n (%) | Treatment-related TEAE, Vomiting, Grade 3/4 [1]: 0 n (%) | Treatment-related TEAE, Vomiting, Grade 5 [1]: 0 n (%) | Treatment-related TEAE, Vomiting, Total [1]: 12 (42.9 ) n (%) | All-causality SAE, abdominal pain (parts 1 and 2, 151 patients): 2.0% | All-causality SAE, colitis (parts 1 and 2, 151 patients): 2.0% | All-causality SAE, febrile neutropenia (parts 1 and 2, 151 patients): 3.3% | All-causality SAE, hypotension (parts 1 and 2, 151 patients): 2.0% | All-causality TEAE, alopecia (parts 1 and 2, 151 patients): 28.5% | All-causality TEAE, anemia (parts 1 and 2, 151 patients): 44.4% | All-causality TEAE, constipation (parts 1 and 2, 151 patients): 25.2% | All-causality TEAE, diarrhea (parts 1 and 2, 151 patients): 22.5% | All-causality TEAE, fatigue (parts 1 and 2, 151 patients): 43.7% | All-causality TEAE, headache (parts 1 and 2, 151 patients): 29.1% | All-causality TEAE, leukopenia (parts 1 and 2, 151 patients): 25.8% | All-causality TEAE, nausea (parts 1 and 2, 151 patients): 62.9% | All-causality TEAE, neutropenia (parts 1 and 2, 151 patients): 37.7% | All-causality TEAE, vomiting (parts 1 and 2, 151 patients): 35.8% | All-causality TEAEs, any, patients (parts 1 and 2, 151 patients): 97.4% | All-causality serious adverse events (SAE), patients (parts 1 and 2, 151 patients): 22.5% | Grade 3 all-causality TEAEs, patients (parts 1 and 2, 151 patients): 34.4% | Grade 3 and grade 4 all-causality TEAEs, patients (parts 1 and 2, 151 patients): 45.7% | Grade 3 treatment-related TEAEs, patients (parts 1 and 2, 151 patients): 25.8% | Grade 4 all-causality TEAEs, patients (parts 1 and 2, 151 patients): 11.3% | Grade 4 treatment-related TEAEs, patients (parts 1 and 2, 151 patients): 9.9% | TEAE leading to dose interruptions, anemia (parts 1 and 2, 151 patients): 11.3% | TEAE leading to dose interruptions, nausea (parts 1 and 2, 151 patients): 11.3% | TEAE leading to dose interruptions, neutropenia (parts 1 and 2, 151 patients): 17.9% | TEAE leading to dose reductions, fatigue (parts 1 and 2, 151 patients): 5.3% | TEAE leading to dose reductions, nausea (parts 1 and 2, 151 patients): 4.6% | TEAE leading to dose reductions, neutropenia (parts 1 and 2, 151 patients): 6.0% | TEAEs leading to discontinuation, patients (parts 1 and 2, 151 patients): 7.3% | TEAEs leading to dose interruptions, patients (parts 1 and 2, 151 patients): 51.7% | TEAEs leading to dose reductions, patients (parts 1 and 2, 151 patients): 21.2% | Treatment-related SAE, colitis (parts 1 and 2, 151 patients): 1.3% | Treatment-related SAE, febrile neutropenia (parts 1 and 2, 151 patients): 3.3% | Treatment-related SAE, neutropenia (parts 1 and 2, 151 patients): 1.3%
